# Measured values from ChEMBL document CHEMBL3217601, “Optimized glucuronidation of dual pharmacology -2 agonists/M3 antagonists for the treatment of COPD” (Medchemcomm, 2011).
# Activity calls are given as the source filed them. The calls are words filed in the database; no cut-off is given here.
# Key:
# [1] = target: Beta-1 adrenergic receptor (Homo sapiens, UniProt P08588); assay: Agonist activity at beta-1 adrenoceptor (unknown origin)
# [2] = target: T1, Muscarinic acetylcholine receptor M3 (Homo sapiens, UniProt P20309); assay: Displacement of [3H]-N-methyl scopolamine from human cloned muscarinic M3 receptor
# Target sequence in this assay (P20309 whole entry): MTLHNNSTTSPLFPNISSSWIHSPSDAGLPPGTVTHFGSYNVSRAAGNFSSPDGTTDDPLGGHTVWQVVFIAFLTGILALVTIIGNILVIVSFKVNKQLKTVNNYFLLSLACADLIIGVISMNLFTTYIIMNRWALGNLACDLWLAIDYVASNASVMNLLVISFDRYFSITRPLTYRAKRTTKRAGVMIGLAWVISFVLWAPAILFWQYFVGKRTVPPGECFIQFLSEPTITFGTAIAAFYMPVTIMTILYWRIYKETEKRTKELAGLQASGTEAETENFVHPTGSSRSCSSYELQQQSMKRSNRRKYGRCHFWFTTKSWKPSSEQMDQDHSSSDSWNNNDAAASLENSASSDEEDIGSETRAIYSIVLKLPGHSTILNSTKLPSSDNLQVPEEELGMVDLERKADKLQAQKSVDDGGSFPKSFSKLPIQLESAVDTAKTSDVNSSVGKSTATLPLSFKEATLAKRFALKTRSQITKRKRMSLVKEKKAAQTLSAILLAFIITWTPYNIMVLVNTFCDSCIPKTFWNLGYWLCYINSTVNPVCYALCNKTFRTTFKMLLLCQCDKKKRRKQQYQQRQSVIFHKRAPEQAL
# [3] = Drug metabolism of the compound in human liver microsomes assessed as glucuronidation in absence of NADPH and presence of microsomal activator Brij58 and UDPGA
# [4] = Intrinsic clearance in human liver microsomes assessed as glucuronidation in absence of NADPH and presence of microsomal activator Brij58 and UDPGA
# [5] = target: T2, Beta-2 adrenergic receptor (Homo sapiens, UniProt P07550); assay: Agonist activity at human beta-2 adrenoceptor expressed in CHO cells assessed as stimulation of intracellular cAMP production; type: functional, cell-based
# Target sequence in this assay (P07550 whole entry): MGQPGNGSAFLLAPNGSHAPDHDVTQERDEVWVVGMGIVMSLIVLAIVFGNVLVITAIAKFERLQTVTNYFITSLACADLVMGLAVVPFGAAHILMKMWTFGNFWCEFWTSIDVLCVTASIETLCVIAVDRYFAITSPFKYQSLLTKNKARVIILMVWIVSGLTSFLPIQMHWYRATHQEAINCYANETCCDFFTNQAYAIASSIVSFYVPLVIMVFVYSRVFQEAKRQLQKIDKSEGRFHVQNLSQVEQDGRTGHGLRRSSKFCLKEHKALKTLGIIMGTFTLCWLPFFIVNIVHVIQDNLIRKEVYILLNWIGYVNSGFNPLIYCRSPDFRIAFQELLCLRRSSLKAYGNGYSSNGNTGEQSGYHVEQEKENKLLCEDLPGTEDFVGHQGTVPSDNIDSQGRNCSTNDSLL
# Canis familiaris [6] = assay: Bronchodilatory activity in intratracheally dosed dog assessed as duration of inhibition of methacholine-induced bronchoconstriction; type: functional, Canis lupus familiaris
# [7] = target: T2, Beta-2 adrenergic receptor; assay: Ratio of EC50 for human beta-2 adrenoceptor measured after drug washout to EC50 for human beta-2 adrenoceptor
# Target sequence in this assay (P07550 whole entry, looked up): as the sequence (P07550 whole entry) above
# Cavia porcellus [8] = organism: Cavia porcellus; assay: Modulation of beta-2 adrenoceptor/muscarinic M3 receptor in guinea pig trachea assessed as time taken for muscle tone at submaximal concentration of compound to recover by 50% of inhibition induced; type: tissue-based
# [9] = Modulation of beta-2 adrenoceptor/muscarinic M3 receptor in guinea pig trachea assessed as inhibition of electric field stimulated muscle contraction by measuring release of endogenous acetylcholine; type: tissue-based, Cavia porcellus
# [10] = Drug metabolism in human hepatocytes assessed as formation of phenol glucuronide and sulfate metabolite by LC/MS/MS analysis; type: ADME, cell-based, Hepatocyte
# [11] = Half life in guinea pig at 0.2 mg/kg, po; type: ADME, organism-based, Cavia porcellus; design: dose 0.2 mg/kg, route oral; conditions: in vivo
# Canis familiaris [12] = assay: Bronchodilatory activity in intratracheally dosed dog assessed as inhibition of methacholine-induced bronchoconstriction in presence of propranolol; type: functional, organism-based; conditions: Canis lupus familiaris
# [13] = Clearance in rat at 0.2 mg/kg, po; type: ADME, organism-based; design: dose 0.2 mg/kg, route oral; conditions: in vivo
# Cavia porcellus [14] = organism: Cavia porcellus; assay: Bronchodilatory activity in guinea pig in presence of propranolol; type: functional, organism-based
# [15] = Clearance in guinea pig at 0.2 mg/kg, po; type: ADME, organism-based, Cavia porcellus; design: dose 0.2 mg/kg, route oral; conditions: in vivo
# [16] = Clearance in rat at 2 mg/kg, iv; type: ADME, organism-based; design: dose 2 mg/kg, route intravenous; conditions: in vivo
# [17] = AUC in rat at 2 mg/kg, iv; type: ADME, organism-based; design: dose 2 mg/kg, route intravenous; conditions: plasma
# [18] = target: Beta-2 adrenergic receptor (Cavia porcellus, UniProt Q8K4Z4); assay: Agonist activity at beta-2 adrenoceptor in guinea pig trachea assessed as inhibition of histamine-induced muscle contraction
# Chain of Beta-2 adrenergic receptor (Cavia porcellus, UniProt Q8K4Z4) (Q8K4Z4 whole entry): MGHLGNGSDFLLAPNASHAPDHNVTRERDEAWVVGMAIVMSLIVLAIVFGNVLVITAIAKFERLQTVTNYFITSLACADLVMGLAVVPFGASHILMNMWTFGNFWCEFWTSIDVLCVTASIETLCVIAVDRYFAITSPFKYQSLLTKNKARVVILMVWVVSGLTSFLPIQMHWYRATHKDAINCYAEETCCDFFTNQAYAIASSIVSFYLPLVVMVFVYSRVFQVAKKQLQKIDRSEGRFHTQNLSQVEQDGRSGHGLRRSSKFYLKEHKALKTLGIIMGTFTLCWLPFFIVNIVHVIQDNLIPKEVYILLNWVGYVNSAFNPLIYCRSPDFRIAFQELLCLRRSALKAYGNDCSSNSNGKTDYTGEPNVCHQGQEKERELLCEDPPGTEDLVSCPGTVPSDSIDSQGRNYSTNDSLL
# [19] = AUC in guinea pig at 0.2 mg/kg, po; type: ADME, organism-based, Cavia porcellus; design: dose 0.2 mg/kg, route oral; conditions: plasma
# [20] = target: Muscarinic acetylcholine receptor M3 (Cavia porcellus, UniProt Q8VH26); assay: Antagonist activity at muscarinic M3 receptor in guinea pig trachea assessed as inhibition of electric field stimulated muscle contraction by measuring release of endogenous acetylcholine in presence of propranolol
# Chain of Muscarinic acetylcholine receptor M3 (Cavia porcellus, UniProt Q8VH26) (Q8VH26 whole entry): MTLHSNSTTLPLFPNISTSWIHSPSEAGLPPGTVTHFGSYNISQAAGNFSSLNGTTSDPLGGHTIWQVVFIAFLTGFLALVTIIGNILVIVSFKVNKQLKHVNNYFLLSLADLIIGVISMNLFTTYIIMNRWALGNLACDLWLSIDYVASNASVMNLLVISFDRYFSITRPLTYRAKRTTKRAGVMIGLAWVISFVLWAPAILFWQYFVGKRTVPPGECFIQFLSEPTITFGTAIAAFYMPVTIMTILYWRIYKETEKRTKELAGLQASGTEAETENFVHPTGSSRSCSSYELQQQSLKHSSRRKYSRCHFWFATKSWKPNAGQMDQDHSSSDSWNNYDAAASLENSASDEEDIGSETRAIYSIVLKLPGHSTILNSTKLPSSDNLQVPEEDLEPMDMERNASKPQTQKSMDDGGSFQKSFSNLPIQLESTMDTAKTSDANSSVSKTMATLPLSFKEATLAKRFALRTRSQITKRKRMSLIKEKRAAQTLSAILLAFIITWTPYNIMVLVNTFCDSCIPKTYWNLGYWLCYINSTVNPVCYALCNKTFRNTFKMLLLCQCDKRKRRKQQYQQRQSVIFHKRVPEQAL
# [21] = target: Muscarinic acetylcholine receptor M3 (Cavia porcellus) (UniProt Q8VH26); assay: Antagonist activity at muscarinic M3 receptor in guinea pig trachea assessed as time taken for muscle tone at submaximal concentration of compound to recover by 50% of inhibition induced in presence of propranolol
# Chain of Muscarinic acetylcholine receptor M3 (Cavia porcellus) (Q8VH26 1-587): as the sequence (Q8VH26 whole entry) above
# [22] = Half life in rat at 0.2 mg/kg, po; type: ADME, organism-based; design: dose 0.2 mg/kg, route oral; conditions: in vivo
# [23] = Genotoxicity in micronucleus (unknown origin)
# Canis familiaris [24] = assay: Bronchodilatory activity in intratracheally dosed dog assessed as inhibition of methacholine-induced bronchoconstriction in presence of NK2 agonist BANA; type: functional, organism-based; conditions: Canis lupus familiaris
# [25] = Stability of the compound at 70 degC and 75% relative humidity assessed as impurity after 7 days; type: physicochemical; conditions: 168 h
# Salmonella typhimurium = assay: Genotoxicity in Salmonella typhimurium assessed by Ames test; type: toxicity, organism-based; conditions: salmonella enterica subsp. enterica serovar typhimurium
# [26] = target: T1, Muscarinic acetylcholine receptor M3; assay: Displacement of [3H]-N-methyl scopolamine from human cloned muscarinic M3 receptor assessed as time taken to reach 50% of total [3H]-NMS
# Target sequence in this assay (P20309 whole entry, looked up): as the sequence (P20309 whole entry) above
# Canis familiaris [27] = assay: Bronchodilatory activity in intratracheally dosed dog assessed as inhibition of methacholine-induced bronchoconstriction; type: functional, Canis lupus familiaris
# Oryctolagus cuniculus = organism: Oryctolagus cuniculus; assay: Toxicity in rabbit cough model; type: organism-based; conditions: in vivo
# Cavia porcellus [28] = organism: Cavia porcellus; assay: Bronchodilatory activity in guinea pig in presence of NK2 agonist BANA; type: functional, organism-based
# [29] = AUC in rat at 0.2 mg/kg, po; type: ADME, organism-based; design: dose 0.2 mg/kg, route oral; conditions: plasma
# [30] = Therapeutic index, ratio of cardiovascular toxicity in dog to bronchodilatory activity in intratracheally dosed dog; type: organism-based, Canis lupus familiaris, Trachea; conditions: in vivo, inhaled or intranasal, read-out: TI
# Chain of Beta-1 adrenergic receptor (P08588 whole entry): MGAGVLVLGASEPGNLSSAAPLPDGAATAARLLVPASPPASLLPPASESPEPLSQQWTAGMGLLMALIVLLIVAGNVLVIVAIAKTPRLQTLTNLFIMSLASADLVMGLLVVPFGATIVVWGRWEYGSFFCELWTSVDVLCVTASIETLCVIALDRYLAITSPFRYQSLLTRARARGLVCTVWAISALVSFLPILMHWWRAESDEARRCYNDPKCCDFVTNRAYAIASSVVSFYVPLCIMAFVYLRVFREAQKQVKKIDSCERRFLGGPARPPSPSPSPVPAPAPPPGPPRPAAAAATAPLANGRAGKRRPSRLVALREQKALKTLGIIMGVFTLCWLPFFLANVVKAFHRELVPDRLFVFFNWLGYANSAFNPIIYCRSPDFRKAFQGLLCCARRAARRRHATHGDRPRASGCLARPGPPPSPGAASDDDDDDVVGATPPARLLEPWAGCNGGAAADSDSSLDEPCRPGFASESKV
compound,measurement,setting,value
CS(=O)(=O)Nc1cc([C@@H](O)CNCCc2ccc(OCCN3CCC(OC(=O)Nc4ccccc4-c4ccc(O)c(Cl)c4)CC3)cc2)ccc1O,EC50,[1],> 10 µM
same,Ki,[2],0.036 µM
same,microsomal CLint,[3],48 µL/min/mg
same,microsomal CLint,[4],74 µL/min/mg
CS(=O)(=O)Nc1cc([C@@H](O)CNCCCCCCCCCCCN2CCC(OC(=O)Nc3ccccc3-c3ccc(O)c(Cl)c3)CC2)ccc1O,EC50,[1],> 10 µM
same,Ki,[2],0.0044 µM
same,microsomal CLint,[3],16 µL/min/mg
same,EC50,[5],0.195 µM
same,microsomal CLint,[4],45 µL/min/mg
CS(=O)(=O)Nc1cc([C@@H](O)CNCCCCCCCCCN2CCC(OC(=O)Nc3ccccc3-c3cc(C#N)ccc3O)CC2)ccc1O,EC50,[1],> 10 µM
same,Ki,[2],> 0.073 µM
same,microsomal CLint,[3],3.7 µL/min/mg
same,microsomal CLint,[4],33 µL/min/mg
CS(=O)(=O)Nc1cc([C@@H](O)CNCCCCCCCCCN2CCC(OC(=O)Nc3ccccc3-c3ccc(O)c(F)c3)CC2)ccc1O,EC50,[1],> 10 µM
same,Ki,[2],0.005 µM
same,microsomal CLint,[3],30 µL/min/mg
same,EC50,[5],0.026 µM
same,microsomal CLint,[4],16 µL/min/mg
CS(=O)(=O)Nc1cc([C@@H](O)CNCCCCCCCCCN2CCC(OC(=O)Nc3ccccc3-c3cc(O)cc(F)c3)CC2)ccc1O,EC50,[1],> 10 µM
same,Ki,[2],0.076 µM
same,microsomal CLint,[3],4 µL/min/mg
same,EC50,[5],0.065 µM
same,microsomal CLint,[4],28 µL/min/mg
CS(=O)(=O)Nc1cc([C@@H](O)CNCCCCCCCCCN2CCC(OC(=O)Nc3ccccc3-c3ccc(O)c(Cl)c3)CC2)ccc1O,Time,Canis familiaris [6],14 h
same,EC50,[1],> 10 µM
same,Ratio EC50,[7],1.5
same,TIME,Cavia porcellus [8],> 11 h
same,EC50,[9],0.0073 µM
same,Drug metabolism,[10],Active
same,Ki,[2],0.00073 µM
same,half-life,[11],0.8 h
same,Activity,Canis familiaris [12],Active
same,CL/F,[13],14 mL/min/kg
same,Activity,Cavia porcellus [14],Active
same,CL/F,[15],3.6 mL/min/kg
same,clearance,[16],164 mL/min/kg
same,AUC,[17],125 ng·h/mL
same,EC50,[18],0.0058 µM
same,AUC,[19],920 ng·h/mL
same,EC50,[20],0.012 µM
same,TIME,[21],> 11 h
same,half-life,[22],1.6 h
same,Activity,[23],Non-toxic
same,Activity,Canis familiaris [24],Active
same,microsomal CLint,[3],24 µL/min/mg
same,Stability,[25],Stable
same,Activity,Salmonella typhimurium,Non-toxic
same,TIME,[26],1.95 h
same,ID50,Canis familiaris [27],50 µg
same,Activity,Oryctolagus cuniculus,Non-toxic
same,Activity,Cavia porcellus [28],Active
same,EC50,[5],0.0037 µM
same,AUC,[29],256 ng·h/mL
same,microsomal CLint,[4],23 µL/min/mg
CS(=O)(=O)Nc1cc([C@@H](O)CNCCCCCCCCCN2CCC(OC(=O)Nc3ccccc3-c3cccc(O)c3)CC2)ccc1O,EC50,[1],> 10 µM
same,Ki,[2],0.0037 µM
same,microsomal CLint,[3],< 3.5 µL/min/mg
same,EC50,[5],0.129 µM
same,microsomal CLint,[4],26 µL/min/mg
CS(=O)(=O)Nc1cc([C@@H](O)CNCCCCCCCCCN2CCC(OC(=O)Nc3ccccc3-c3ccccc3O)CC2)ccc1O,EC50,[1],> 10 µM
same,Ki,[2],0.018 µM
same,microsomal CLint,[3],< 2 µL/min/mg
same,EC50,[5],0.09 µM
same,microsomal CLint,[4],17 µL/min/mg
OCc1cc(C(O)CNCCCCCCOCCCCc2ccccc2)ccc1O (stereo not given) [SALMETEROL],selectivity ratio,[30],3
Cc1cc(C)c(NC(=O)OC2CCN(CCCCCCCCCNC[C@H](O)c3ccc(O)c(NS(C)(=O)=O)c3)CC2)c(-c2ccc(O)c(Cl)c2)c1,EC50,[1],> 10 µM
same,Ki,[2],0.038 µM
same,microsomal CLint,[3],32 µL/min/mg
same,EC50,[5],0.036 µM
same,microsomal CLint,[4],79 µL/min/mg
CS(=O)(=O)Nc1cc([C@@H](O)CNCCc2ccc(OCCCN3CCC(OC(=O)Nc4ccccc4-c4ccc(O)c(Cl)c4)CC3)cc2)ccc1O,EC50,[1],> 10 µM
same,Ki,[2],0.0031 µM
same,microsomal CLint,[3],29 µL/min/mg
same,EC50,[5],0.013 µM
same,microsomal CLint,[4],33 µL/min/mg
CS(=O)(=O)Nc1cc([C@@H](O)CNCCCCCCCCCN2CCC(OC(=O)Nc3cc(F)ccc3-c3ccc(O)c(Cl)c3)CC2)ccc1O,EC50,[1],> 10 µM
same,Ki,[2],0.0044 µM
same,microsomal CLint,[3],6 µL/min/mg
same,EC50,[5],0.057 µM
same,microsomal CLint,[4],15 µL/min/mg
CS(=O)(=O)Nc1cc([C@@H](O)CNCCCCCCCCCN2CCC(OC(=O)Nc3ccccc3-c3cc(F)c(O)cc3F)CC2)ccc1O,EC50,[1],> 10 µM
same,Ki,[2],0.0083 µM
same,microsomal CLint,[3],90 µL/min/mg
same,EC50,[5],0.022 µM
same,microsomal CLint,[4],13 µL/min/mg
CS(=O)(=O)Nc1cc([C@@H](O)CNCCCCCCCCCN2CCC(OC(=O)Nc3ccccc3-c3ccccc3)CC2)ccc1O,EC50,[1],> 10 µM
same,Ki,[2],0.00039 µM
same,microsomal CLint,[3],< 2 µL/min/mg
same,EC50,[5],0.074 µM
same,microsomal CLint,[4],40 µL/min/mg
